The results in this text go back to patent US9585875B2, “TRPM8 antagonists” (Dompé S.P.A., priority 2011, dated 2017).

The target in series [1] is T1, human Dopamine D3 Receptor (Homo sapiens, UniProt P35462).
T1 construct: expressed in transfected cells; host or cells: HEK293 or CHO
Description: Radioligand binding assay. To be noted: read-out: percentage of control binding value (% B). The method, then: (§1) The objective of this study was to evaluate the in vitro effects of compounds 10 and 45 on cloned human GPCRs (G-protein coupled receptors) expressed in HEK293 or CHO cells using radioligand binding assays (compound concentration=10 μM).
(§2) Three replicates were performed for each experiment.
(§3) For each assay a concentration-response curve of the appropriate reference compound was performed in each experiment. The sample radioactivity content was measured after the addition of the scintillation cocktail Microscint 20 (PerkinElmer), by a microplate scintillation Beta-counter TopCount NXT (PerkinElmer). The atomic disintegrations per minutes evaluated with the beta counter were about 15 times higher than those found using the gamma counter. Data are expressed as percentage of control binding value (% B) and test compound inhibition was considered significant when % B was <75% at 10 μM.

For series [2], the target named is T2, human Histamine H2 Receptor (Homo sapiens, UniProt P25021).
T2 construct: expressed in transfected cells; host or cells: HEK293 or CHO
The series can be described thus: Radioligand binding assay. To be noted: read-out: percentage of control binding value (% B). How it is done:
as §1, §2, §3

Series [3] addresses T3, human Bradykinin B1 Receptor (Homo sapiens, UniProt P46663).
T3 construct: expressed in transfected cells; host or cells: HEK293 or CHO
Description: Radioligand binding assay. To be noted: read-out: percentage of control binding value (% B). The method, then: as §1, §2, §3

Series [4] deals with T4, human Adrenergic α1A Receptor (Homo sapiens, UniProt P35348).
T4 construct: expressed in transfected cells; host or cells: HEK293 or CHO
The series can be described thus: Radioligand binding assay. To be noted: read-out: percentage of control binding value (% B). How it is done: as §1, §2, §3

In series [5] the target is T5, human Adrenergic β2 Receptor (Homo sapiens, UniProt P07550).
T5 construct: expressed in transfected cells; host or cells: HEK293 or CHO
Description: Radioligand binding assay. To be noted: read-out: percentage of control binding value (% B). The method, then: as §1, §2, §3

Series [6] concerns the target T6, human Cannabinoid CB2 Receptor (Homo sapiens, UniProt P34972).
T6 construct: expressed in transfected cells; host or cells: HEK293 or CHO
Description: Radioligand binding assay. To be noted: read-out: percentage of control binding value (% B). The method, then: as §1, §2, §3

The target of series [7] is T7, human Adrenergic β1 Receptor (Homo sapiens, UniProt P08588).
T7 construct: expressed in transfected cells; host or cells: HEK293 or CHO
The series can be described thus: Radioligand binding assay. To be noted: read-out: percentage of control binding value (% B). How it is done:
as §1, §2, §3

Series [8] concerns the target T8, human Muscarinic M2 Receptor (Homo sapiens, UniProt P08172).
T8 construct: expressed in transfected cells; host or cells: HEK293 or CHO
The series can be described thus: Radioligand binding assay. To be noted: read-out: percentage of control binding value (% B). The method, then:
as §1, §2, §3

Series [9] has as its target T9, human Histamine H1 Receptor (Homo sapiens, UniProt P35367).
T9 construct: expressed in transfected cells; host or cells: HEK293 or CHO
Description: Radioligand binding assay. To be noted: read-out: percentage of control binding value (% B). The method, then:
as §1, §2, §3

Series [10] concerns the target T10, human Muscarinic M3 Receptor (Homo sapiens, UniProt P20309).
T10 construct: expressed in transfected cells; host or cells: HEK293 or CHO
The series can be described thus: Radioligand binding assay. To be noted: read-out: percentage of control binding value (% B). How it is done: as §1, §2, §3

Series [11] has as its target T11, human Adrenergic α2A Receptor (Homo sapiens, UniProt P08913).
T11 construct: expressed in transfected cells; host or cells: HEK293 or CHO
Description: Radioligand binding assay. To be noted: read-out: percentage of control binding value (% B). How it is done: as §1, §2, §3

Series [12] deals with T12, human Dopamine D2S Receptor (Homo sapiens, UniProt P14416).
T12 construct: expressed in transfected cells; host or cells: HEK293 or CHO
The series can be described thus: Radioligand binding assay. To be noted: read-out: percentage of control binding value (% B). The method, then: as §1, §2, §3

Series [13] has as its target T13, human Serotoninergic 5-HT1A Receptor (Homo sapiens, UniProt P08908).
T13 construct: expressed in transfected cells; host or cells: HEK293 or CHO
The series can be described thus: Radioligand binding assay. To be noted: read-out: percentage of control binding value (% B). How it is done: as §1, §2, §3

A further series in a line: Log D. It counts as physicochemical.
The next series deals with TRPM8 (Homo sapiens, UniProt Q7Z2W7). The series can be described thus: HTS cell-based Ca2+ mobilization assay (FLIPR TETRA) in HEK293/hTRPM8 cells, agonist Cooling Agent 10. More on the design: expressed in transfected cells. To be noted: HEK293/hTRPM8, Cooling Agent 10 at EC80. The source says:
A functional cell-based assay for the identification of TRPM8 receptor antagonists, optimised to allow high throughput screening at FLIPR^TETRA, was developed in HEK293 cells by stable pure clone selection and functional characterization with a fluorescent calcium sensitive dye.
TRPM8 was cloned into the multiple cloning site of pcDNA3 mammalian expression vector; the obtained construct pcDNA3/hTRPM8 was fully sequence verified and used for the transfection of HEK293 cell line. HEK293 cells stably transfected with TRPM8 gene were maintained in Minimum essential medium. The cells were transfected with the pcDNA3/hTRPM8 vector by electroporation and then selected with medium containing 0.8 mg/ml G418 for 10-15 days.
The following commercial compounds were used as ligands:
Activator: Cooling Agent 10 (Takasago CAS N. 87061-04-9)
Blocker: Capsazepine (SIGMA cat #D_5879)
The experimental activities were performed using FLIPR^TETRA instruments.
HEK293 cells stably transfected with TRPM8 gene were maintained in Minimum essential medium.
The TRPM8 cell line was analysed for the response to a library of compounds using a Ca^2+ mobilization-dependent fluorescence signal in 384 wells microtiter plate format. The analysis was performed using the FLIPR^TETRA (MDC) with the ICCD Camera.
The execution of the assay involved the use of three microtiter plates:
1. Assay plate, containing cells loaded with dye and prepared as follows:
Cells were seeded at 15000 c/well in Poly-D-Lysine coated 384 wells Microtiter Plates in complete medium (25 μl/well).
24 h after seeding, the cell plates were washed with Tyrode assay buffer by the Microplate Washer and 10 μL of Tyrode assay buffer was left in each well.
Cells were then loaded with 10 μL/well of the Fluo-4 NW dye solution by CyBi®-Well pipettor. Each bottle of Fluo4-NW dye (Molecular Probes cat. #F36206, component A) was re-suspended in 8 mL of Tyrode assay buffer and supplemented with 100 μL of water-soluble probenecid (MolecularProbes cat.#F36206, component B).
Dye loaded cell plates were incubated for 1 h at room temperature.
2. Compound Dilution Plate (FIG. 1), containing diluted test compounds, formulated as follows: […]
Column 1: wells containing Assay Buffer plus DMSO 0.5% final
Columns 3-22: wells containing Assay Buffer plus 0.5% DMSO final. To these wells the compounds to be tested were added at 3× concentration.
Column 23: alternating wells of Max Signal Control in second injection (Assay buffer) and Min Signal Control in second injection (Antagonist Capsazepine IC100, 50 μM) in Assay buffer plus 0.5% DMSO final;
Column 24: wells containing Capsazepine (Antagonist) at 8 concentrations in duplicate at final concentrations of 50 μM, 25 μM, 6.25 μM, 3.15 μM, 1.56 μM, 780 nM, […] in Assay buffer plus 0.5% DMSO final.
3. Activator Plate (FIG. 2), containing agonist Cooling Agent 10 at EC80, formulated as follows:
Column 1: Cooling Agent 10 (Agonist) at 8 concentrations dose response in duplicate at final concentrations of 100 μM, 31.6 μM, 10 μM, 3.16 μM, 1 μM, 316 nM, 100 nM, 31.6 nM in Assay buffer;
Columns 2-24: Cooling Agent 10 (Agonist) at EC80 (3 fold concentrated, 20 μM final) in Assay buffer.
The test was carried out according to a procedure comprising the following steps:
1. The samples contained in the wells of the Compound Plate were added to the corresponding wells of the Assay Plate by the FLIPR^TETRA, thus resulting in the addition in Columns 3-22 of the test compounds at 3× concentration to the cells of the assay plates. No mixing was performed in the assay wells and the signal of the emitted fluorescence was recorded for 300 seconds. 2. The samples contained in the wells of the Activator Plate were added to the corresponding wells of the Assay Plate by the FLIPR^TETRA, thus resulting in the addition in Columns 3-22 of the Assay Plate of the agonist compound in addition to the test compounds. The signal of the emitted fluorescence was recorded for 180 seconds.

pIC50: −log10 of the molar value.

T11 sequence (P08913 whole entry): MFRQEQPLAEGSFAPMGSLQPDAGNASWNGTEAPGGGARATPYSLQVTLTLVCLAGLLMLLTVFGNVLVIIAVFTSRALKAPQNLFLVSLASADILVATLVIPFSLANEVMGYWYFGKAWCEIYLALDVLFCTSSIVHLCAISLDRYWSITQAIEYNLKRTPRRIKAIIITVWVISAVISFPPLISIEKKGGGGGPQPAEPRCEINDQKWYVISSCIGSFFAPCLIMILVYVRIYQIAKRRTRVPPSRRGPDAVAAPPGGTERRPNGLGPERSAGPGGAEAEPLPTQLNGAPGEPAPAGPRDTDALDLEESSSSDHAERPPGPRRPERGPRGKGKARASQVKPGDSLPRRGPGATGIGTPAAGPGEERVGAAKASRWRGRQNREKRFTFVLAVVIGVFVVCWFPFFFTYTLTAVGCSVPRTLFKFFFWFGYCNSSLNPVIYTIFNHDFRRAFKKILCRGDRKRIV
T10 sequence (P20309 whole entry): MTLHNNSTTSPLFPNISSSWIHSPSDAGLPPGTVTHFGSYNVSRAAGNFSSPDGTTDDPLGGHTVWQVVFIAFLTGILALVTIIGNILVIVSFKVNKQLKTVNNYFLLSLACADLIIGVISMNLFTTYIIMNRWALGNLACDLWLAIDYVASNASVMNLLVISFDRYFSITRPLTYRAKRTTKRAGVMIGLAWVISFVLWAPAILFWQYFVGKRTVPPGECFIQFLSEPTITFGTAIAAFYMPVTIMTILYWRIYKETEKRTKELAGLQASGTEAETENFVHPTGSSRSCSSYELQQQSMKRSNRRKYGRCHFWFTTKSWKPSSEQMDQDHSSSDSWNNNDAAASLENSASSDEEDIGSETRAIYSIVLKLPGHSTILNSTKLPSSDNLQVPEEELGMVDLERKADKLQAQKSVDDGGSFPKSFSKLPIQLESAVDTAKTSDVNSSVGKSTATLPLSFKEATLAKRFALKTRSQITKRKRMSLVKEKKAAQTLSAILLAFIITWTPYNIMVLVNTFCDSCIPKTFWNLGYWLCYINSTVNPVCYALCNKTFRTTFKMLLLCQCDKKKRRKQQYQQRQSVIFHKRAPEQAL
T12 sequence (P14416 1-414 isoform P14416-2): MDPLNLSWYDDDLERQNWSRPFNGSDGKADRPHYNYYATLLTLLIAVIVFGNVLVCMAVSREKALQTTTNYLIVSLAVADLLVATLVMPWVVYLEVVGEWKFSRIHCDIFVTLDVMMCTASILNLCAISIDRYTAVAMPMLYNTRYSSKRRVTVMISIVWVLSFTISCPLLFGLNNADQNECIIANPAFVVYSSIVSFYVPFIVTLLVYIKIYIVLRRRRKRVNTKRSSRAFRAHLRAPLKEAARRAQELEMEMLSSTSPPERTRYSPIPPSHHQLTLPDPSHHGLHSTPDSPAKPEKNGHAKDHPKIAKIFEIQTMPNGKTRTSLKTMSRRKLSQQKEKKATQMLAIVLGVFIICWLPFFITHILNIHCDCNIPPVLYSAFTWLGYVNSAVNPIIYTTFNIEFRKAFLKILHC
T3 sequence (P46663 whole entry): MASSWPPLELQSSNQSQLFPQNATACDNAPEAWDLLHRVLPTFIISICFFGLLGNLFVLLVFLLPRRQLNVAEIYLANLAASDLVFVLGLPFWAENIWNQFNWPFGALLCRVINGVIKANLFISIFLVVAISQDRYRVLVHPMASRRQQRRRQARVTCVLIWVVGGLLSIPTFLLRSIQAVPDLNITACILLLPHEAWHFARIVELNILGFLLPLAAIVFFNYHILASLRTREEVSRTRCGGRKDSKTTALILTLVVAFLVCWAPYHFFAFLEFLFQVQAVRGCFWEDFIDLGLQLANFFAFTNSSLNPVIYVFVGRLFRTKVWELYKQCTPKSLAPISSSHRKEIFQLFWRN
T5 sequence (P07550 whole entry): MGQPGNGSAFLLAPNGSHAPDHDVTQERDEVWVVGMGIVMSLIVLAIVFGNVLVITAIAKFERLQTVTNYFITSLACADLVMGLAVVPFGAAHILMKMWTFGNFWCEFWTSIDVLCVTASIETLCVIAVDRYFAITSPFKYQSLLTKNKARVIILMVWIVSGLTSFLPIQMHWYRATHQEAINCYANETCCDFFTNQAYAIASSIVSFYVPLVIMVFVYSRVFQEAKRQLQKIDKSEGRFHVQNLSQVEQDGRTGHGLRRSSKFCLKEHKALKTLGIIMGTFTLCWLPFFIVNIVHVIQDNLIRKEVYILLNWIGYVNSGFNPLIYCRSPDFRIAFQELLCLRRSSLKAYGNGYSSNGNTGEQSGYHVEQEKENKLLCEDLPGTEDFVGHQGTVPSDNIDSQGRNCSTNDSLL
T1 sequence (P35462 whole entry): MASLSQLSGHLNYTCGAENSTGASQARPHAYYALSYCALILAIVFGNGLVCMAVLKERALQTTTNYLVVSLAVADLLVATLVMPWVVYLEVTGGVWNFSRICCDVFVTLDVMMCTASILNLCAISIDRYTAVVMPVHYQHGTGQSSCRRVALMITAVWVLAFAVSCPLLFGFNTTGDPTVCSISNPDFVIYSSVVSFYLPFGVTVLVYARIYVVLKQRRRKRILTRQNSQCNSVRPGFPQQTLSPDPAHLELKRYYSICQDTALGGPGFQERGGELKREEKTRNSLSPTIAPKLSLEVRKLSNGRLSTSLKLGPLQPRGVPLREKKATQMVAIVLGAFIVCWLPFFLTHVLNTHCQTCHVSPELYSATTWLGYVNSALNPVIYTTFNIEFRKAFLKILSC
T7 sequence (P08588 whole entry): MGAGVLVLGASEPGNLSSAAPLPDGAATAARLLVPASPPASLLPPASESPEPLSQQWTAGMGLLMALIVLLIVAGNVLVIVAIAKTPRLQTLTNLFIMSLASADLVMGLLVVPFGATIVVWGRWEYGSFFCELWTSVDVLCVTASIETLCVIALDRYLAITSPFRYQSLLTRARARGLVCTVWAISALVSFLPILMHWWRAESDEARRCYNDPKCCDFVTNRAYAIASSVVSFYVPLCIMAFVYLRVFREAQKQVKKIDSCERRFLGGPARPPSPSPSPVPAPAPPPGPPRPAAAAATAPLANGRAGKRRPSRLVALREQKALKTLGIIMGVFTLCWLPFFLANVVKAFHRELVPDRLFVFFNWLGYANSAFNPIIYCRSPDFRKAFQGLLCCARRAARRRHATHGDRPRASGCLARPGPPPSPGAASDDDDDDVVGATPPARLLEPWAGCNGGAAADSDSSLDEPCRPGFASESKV
T4 sequence (P35348 whole entry): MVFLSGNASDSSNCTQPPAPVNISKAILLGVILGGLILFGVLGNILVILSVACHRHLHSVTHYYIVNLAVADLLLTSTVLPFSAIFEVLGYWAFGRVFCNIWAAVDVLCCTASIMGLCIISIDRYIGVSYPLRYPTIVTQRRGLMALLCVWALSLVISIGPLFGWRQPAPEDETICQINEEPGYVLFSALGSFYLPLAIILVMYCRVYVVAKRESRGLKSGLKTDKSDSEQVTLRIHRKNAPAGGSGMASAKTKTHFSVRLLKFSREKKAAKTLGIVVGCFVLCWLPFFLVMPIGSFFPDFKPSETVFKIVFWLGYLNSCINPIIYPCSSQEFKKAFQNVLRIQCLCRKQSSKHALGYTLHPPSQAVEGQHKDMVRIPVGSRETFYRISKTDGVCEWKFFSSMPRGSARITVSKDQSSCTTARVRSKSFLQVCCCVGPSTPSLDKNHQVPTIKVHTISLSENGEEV
T9 sequence (P35367 whole entry): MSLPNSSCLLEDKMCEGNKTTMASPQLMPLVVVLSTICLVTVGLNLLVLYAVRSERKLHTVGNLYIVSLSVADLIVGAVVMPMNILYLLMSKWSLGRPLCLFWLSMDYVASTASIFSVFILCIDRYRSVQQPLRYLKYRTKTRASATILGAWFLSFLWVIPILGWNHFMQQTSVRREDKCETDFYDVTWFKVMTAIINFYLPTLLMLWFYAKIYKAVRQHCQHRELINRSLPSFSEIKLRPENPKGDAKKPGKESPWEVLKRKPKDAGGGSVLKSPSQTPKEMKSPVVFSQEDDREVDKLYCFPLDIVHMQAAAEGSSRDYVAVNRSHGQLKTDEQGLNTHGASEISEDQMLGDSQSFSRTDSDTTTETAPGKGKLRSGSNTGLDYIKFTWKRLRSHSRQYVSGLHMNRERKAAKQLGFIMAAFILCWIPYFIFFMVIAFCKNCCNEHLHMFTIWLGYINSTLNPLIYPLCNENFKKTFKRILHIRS
T8 sequence (P08172 whole entry): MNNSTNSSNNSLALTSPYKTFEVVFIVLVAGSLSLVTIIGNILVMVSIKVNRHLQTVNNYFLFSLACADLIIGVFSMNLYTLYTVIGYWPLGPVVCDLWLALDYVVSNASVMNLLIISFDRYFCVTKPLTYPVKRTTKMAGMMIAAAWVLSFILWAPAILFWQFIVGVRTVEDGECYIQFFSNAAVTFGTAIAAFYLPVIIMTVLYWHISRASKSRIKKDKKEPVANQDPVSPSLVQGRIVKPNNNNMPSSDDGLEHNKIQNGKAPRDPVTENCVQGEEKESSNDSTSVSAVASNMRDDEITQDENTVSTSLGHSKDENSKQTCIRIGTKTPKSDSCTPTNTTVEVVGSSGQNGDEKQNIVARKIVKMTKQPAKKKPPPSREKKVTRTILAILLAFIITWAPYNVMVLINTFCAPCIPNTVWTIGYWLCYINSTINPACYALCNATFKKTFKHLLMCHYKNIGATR
T13 sequence (P08908 whole entry): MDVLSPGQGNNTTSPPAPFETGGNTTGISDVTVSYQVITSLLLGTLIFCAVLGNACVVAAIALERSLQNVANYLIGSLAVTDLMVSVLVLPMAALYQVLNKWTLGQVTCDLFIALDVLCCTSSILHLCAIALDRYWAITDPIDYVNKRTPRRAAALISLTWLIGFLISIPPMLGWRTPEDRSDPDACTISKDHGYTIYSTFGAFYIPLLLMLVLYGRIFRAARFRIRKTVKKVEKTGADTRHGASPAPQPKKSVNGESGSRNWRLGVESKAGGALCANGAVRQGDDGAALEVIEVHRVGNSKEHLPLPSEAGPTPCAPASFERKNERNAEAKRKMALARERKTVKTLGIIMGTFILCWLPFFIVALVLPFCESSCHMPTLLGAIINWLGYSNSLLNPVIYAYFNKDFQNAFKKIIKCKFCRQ

With `CCOC(=O)c1sc(-c2cccc(F)c2)nc1O` [Compound 10, ethyl 2-(3-fluorophenyl)-4-hydroxy-1,3-thiazole-5-carboxylate], the remaining activity at 10 µM in [1] stood at 87%; in [2] it was 90%; in series [3] it was 91%; in series [4] it was 100%; in [5] it was 88%; in series [6] it was 102%. Besides, the remaining activity at 10 µM in series [7] amounted to 82%; in [8], 90%; in series [9], 99.3%; in series [10] it was 98%; in series [11] it was 100%; in series [12], 100%. Moreover, the remaining activity at 10 µM in [13] was 100%. In addition, the “log D values” in the series “Log D” is given as “low”. In “Log D”, this compound returned a logD of 1.59. This compound also showed a pIC50 at TRPM8 of 6.00.

On to `O=C(O)c1sc(-c2ccc(Cl)cc2)nc1OCc1ccc(Cl)cc1` [Compound 45, 4-[(4-chlorobenzyl)oxy]-2-(4-chlorophenyl)-1,3-thiazole-5-carboxylic acid], for which the remaining activity at 10 µM in [1] amounted to 97.2%; in series [2] it was 93.2%; in [3], 99.6%; in series [4] it was 96%; in [5], 93%; in series [6] it was 86.7%. The remaining activity at 10 µM in series [7] was found to be 90.5%; in [8], 96%; in [9], 100%; in [10] it was 95%; in series [11] it was 100%; in series [12], 100%. Moreover, the remaining activity at 10 µM in [13] was determined as 100%. Also, in the series “Log D”, the log distribution coefficient (logD) is 2.7. In addition, on TRPM8, the negative logarithm of the IC50 (pIC50) is 9.70.
